# Experimental data published in paper PMC6032158, “Structure–Activity Relationship of Piplartine and Synthetic Analogues against Schistosoma mansoni and Cytotoxicity to Mammalian Cells” (International Journal of Molecular Sciences, 2018).
# What was measured:
# [1] = test system: murine fibroblast (NIH-3T3) cells; assay: MTT cytotoxicity assay in murine fibroblasts; type: cell-based
# Protocol: Next, the medium was removed and various concentrations (25–800 µg/mL) of samples reconstituted in 3% DMSO were applied. DMSO (3%) was used as a control. The plates were incubated for 24 h. Next, 15 µL of MTT solution (5 mg/mL in phosphate buffer) was added to each well and the plates were incubated for 2 h. Medium was discarded and 100 µL of DMSO was added to each well. Absorbance was determined using a spectrophotometer with a microplate reader at 595 nm (Molecular Devices Corporation, Sunnyvale, CA, USA).
# [2] = test system: 49-day-old S. mansoni adult worms; assay: In vitro experiments with adult worms of S. mansoni (mortality, motor activity); type: cell-based, Schistosoma mansoni; conditions: for Dead Worms (%) F / Motor Activity Reduction (%) Significant F / Motor Activity Reduction (%) Slight F: female worms; for Dead Worms (%) M / Motor Activity Reduction (%) Significant M / Motor Activity Reduction (%) Slight M: male worms
# Protocol: The Belo Horizonte (BH) strain of S. mansoni was maintained in Biomphalaria glabrata snails and Mesocricetus auratus hamsters at the Adolfo Lutz Institute (São Paulo, Brazil) according to standard procedures. Detailed methods for the infection of molluscs and hamsters, as well as for the recovery of parasites, were as described previously. Briefly, the intermediate host snails were exposed to light for approximately 3 h and cercariae of S. mansoni were subsequently harvested. […] All animals were handled in strict accordance with good animal practice as defined by the Animal Use Ethics Committee. The preparations and culture of schistosomes was performed as previously described. Briefly, hamsters were killed 49 days after infection for the recovery of adult schistosomes. Next, fresh adult worm pairs (male and female) were washed and placed in a 24-well culture plate (TPP, St. […] Adult schistosomes were maintained continuously in medium (with or without drugs) for 96 h as described below. In vitro assays in S. mansoni adults were performed with mated males and females. The worm pairs obtained from the infusion hamsters were washed twice with RPMI 1640 medium containing 200 U/mL penicillin, 200 μg/mL streptomycin and 2 μg/mL amphotericin B (Vitrocell, Campinas, Brazil). The mated parasites were then transferred into 24-well cell culture plates (TPP, St. […] Cultures of adult worms were monitored by microscopy or magnifying glass. The effect of the drug was assessed with emphasis on changes in worm motor activity and death of worms as previously described.
# [3] = test system: mouse BALB/cN macrophage (J774A.1) cell line; assay: Cell viability by flow cytometry in macrophages; conditions: 24 h, 25, 100 and 400 µg/mL, vs DMEM control
smiles,measurement,setting,value
O=C(/C=C/c1ccc([N+](=O)[O-])cc1)N(C(=O)NC1CCCCC1)C1CCCCC1 [Compound 6B],effect on NIH-3T3 cell viability (in words),"[1]; MTT, 24 h exposure, 25 to 800 µg/mL",did not exert significant effects on mammalian cell viability at the tested concentrations
same,Emax at 800 µg/mL,"[1]; Mus musculus, NIH3T3, 24 h, decrease in cell viability at the maximum concentration tested (800 μg/mL), NIH-3T3, 24 h",< 50%
same,Dead Worms (%) F,"[2]; 5 µM, 14 h",0%
same,Motor Activity Reduction (%) Significant F,"[2]; 5 µM, 14 h",0%
same,Motor Activity Reduction (%) Slight F,"[2]; 5 µM, 14 h",0%
same,Dead Worms (%) M,"[2]; 5 µM, 14 h",0%
same,Motor Activity Reduction (%) Significant M,"[2]; 5 µM, 14 h",0%
same,Motor Activity Reduction (%) Slight M,"[2]; 5 µM, 14 h",0%
same,Dead Worms (%) F,"[2]; 5 µM, 48 h",0%
same,Motor Activity Reduction (%) Significant F,"[2]; 5 µM, 48 h",0%
same,Motor Activity Reduction (%) Slight F,"[2]; 5 µM, 48 h",0%
same,Dead Worms (%) M,"[2]; 5 µM, 48 h",0%
same,Motor Activity Reduction (%) Significant M,"[2]; 5 µM, 48 h",0%
same,Motor Activity Reduction (%) Slight M,"[2]; 5 µM, 48 h",0%
same,Dead Worms (%) F,"[2]; 5 µM, 72 h",0%
same,Motor Activity Reduction (%) Significant F,"[2]; 5 µM, 72 h",0%
same,Motor Activity Reduction (%) Slight F,"[2]; 5 µM, 72 h",0%
same,Dead Worms (%) M,"[2]; 5 µM, 72 h",0%
same,Motor Activity Reduction (%) Significant M,"[2]; 5 µM, 72 h",0%
same,Motor Activity Reduction (%) Slight M,"[2]; 5 µM, 72 h",0%
same,Dead Worms (%) F,"[2]; 5 µM, 96 h",0%
same,Motor Activity Reduction (%) Significant F,"[2]; 5 µM, 96 h",0%
same,Motor Activity Reduction (%) Slight F,"[2]; 5 µM, 96 h",0%
same,Dead Worms (%) M,"[2]; 5 µM, 96 h",0%
same,Motor Activity Reduction (%) Significant M,"[2]; 5 µM, 96 h",0%
same,Motor Activity Reduction (%) Slight M,"[2]; 5 µM, 96 h",0%
same,Dead Worms (%) F,"[2]; 10 µM, 24 h",0%
same,Motor Activity Reduction (%) Significant F,"[2]; 10 µM, 24 h",0%
same,Motor Activity Reduction (%) Slight F,"[2]; 10 µM, 24 h",0%
same,Dead Worms (%) M,"[2]; 10 µM, 24 h",0%
same,Motor Activity Reduction (%) Significant M,"[2]; 10 µM, 24 h",0%
same,Motor Activity Reduction (%) Slight M,"[2]; 10 µM, 24 h",0%
same,Dead Worms (%) F,"[2]; 10 µM, 48 h",0%
same,Motor Activity Reduction (%) Significant F,"[2]; 10 µM, 48 h",0%
same,Motor Activity Reduction (%) Slight F,"[2]; 10 µM, 48 h",0%
same,Dead Worms (%) M,"[2]; 10 µM, 48 h",0%
same,Motor Activity Reduction (%) Significant M,"[2]; 10 µM, 48 h",0%
same,Motor Activity Reduction (%) Slight M,"[2]; 10 µM, 48 h",0%
same,Dead Worms (%) F,"[2]; 10 µM, 72 h",0%
same,Motor Activity Reduction (%) Significant F,"[2]; 10 µM, 72 h",0%
same,Motor Activity Reduction (%) Slight F,"[2]; 10 µM, 72 h",0%
same,Dead Worms (%) M,"[2]; 10 µM, 72 h",0%
same,Motor Activity Reduction (%) Significant M,"[2]; 10 µM, 72 h",0%
same,Motor Activity Reduction (%) Slight M,"[2]; 10 µM, 72 h",0%
same,Dead Worms (%) F,"[2]; 10 µM, 96 h",0%
same,Motor Activity Reduction (%) Significant F,"[2]; 10 µM, 96 h",0%
same,Motor Activity Reduction (%) Slight F,"[2]; 10 µM, 96 h",0%
same,Dead Worms (%) M,"[2]; 10 µM, 96 h",0%
same,Motor Activity Reduction (%) Significant M,"[2]; 10 µM, 96 h",0%
same,Motor Activity Reduction (%) Slight M,"[2]; 10 µM, 96 h",0%
same,Dead Worms (%) F,"[2]; 25 µM, 24 h",0%
same,Motor Activity Reduction (%) Significant F,"[2]; 25 µM, 24 h",0%
same,Motor Activity Reduction (%) Slight F,"[2]; 25 µM, 24 h",0%
same,Dead Worms (%) M,"[2]; 25 µM, 24 h",0%
same,Motor Activity Reduction (%) Significant M,"[2]; 25 µM, 24 h",0%
same,Motor Activity Reduction (%) Slight M,"[2]; 25 µM, 24 h",0%
same,Dead Worms (%) F,"[2]; 25 µM, 48 h",0%
same,Motor Activity Reduction (%) Significant F,"[2]; 25 µM, 48 h",0%
same,Motor Activity Reduction (%) Slight F,"[2]; 25 µM, 48 h",0%
same,Dead Worms (%) M,"[2]; 25 µM, 48 h",0%
same,Motor Activity Reduction (%) Significant M,"[2]; 25 µM, 48 h",0%
same,Motor Activity Reduction (%) Slight M,"[2]; 25 µM, 48 h",0%
same,Dead Worms (%) F,"[2]; 25 µM, 72 h",0%
same,Motor Activity Reduction (%) Significant F,"[2]; 25 µM, 72 h",0%
same,Motor Activity Reduction (%) Slight F,"[2]; 25 µM, 72 h",0%
same,Dead Worms (%) M,"[2]; 25 µM, 72 h",0%
same,Motor Activity Reduction (%) Significant M,"[2]; 25 µM, 72 h",0%
same,Motor Activity Reduction (%) Slight M,"[2]; 25 µM, 72 h",0%
same,Dead Worms (%) F,"[2]; 25 µM, 96 h",0%
same,Motor Activity Reduction (%) Significant F,"[2]; 25 µM, 96 h",0%
same,Motor Activity Reduction (%) Slight F,"[2]; 25 µM, 96 h",0%
same,Dead Worms (%) M,"[2]; 25 µM, 96 h",0%
same,Motor Activity Reduction (%) Significant M,"[2]; 25 µM, 96 h",0%
same,Motor Activity Reduction (%) Slight M,"[2]; 25 µM, 96 h",0%
same,Dead Worms (%) F,"[2]; 50 µM, 24 h",0%
same,Motor Activity Reduction (%) Significant F,"[2]; 50 µM, 24 h",0%
same,Motor Activity Reduction (%) Slight F,"[2]; 50 µM, 24 h",0%
same,Dead Worms (%) M,"[2]; 50 µM, 24 h",0%
same,Motor Activity Reduction (%) Significant M,"[2]; 50 µM, 24 h",0%
same,Motor Activity Reduction (%) Slight M,"[2]; 50 µM, 24 h",0%
same,Dead Worms (%) F,"[2]; 50 µM, 48 h",0%
same,Motor Activity Reduction (%) Significant F,"[2]; 50 µM, 48 h",0%
same,Motor Activity Reduction (%) Slight F,"[2]; 50 µM, 48 h",0%
same,Dead Worms (%) M,"[2]; 50 µM, 48 h",0%
same,Motor Activity Reduction (%) Significant M,"[2]; 50 µM, 48 h",0%
same,Motor Activity Reduction (%) Slight M,"[2]; 50 µM, 48 h",0%
same,Dead Worms (%) F,"[2]; 50 µM, 72 h",0%
same,Motor Activity Reduction (%) Significant F,"[2]; 50 µM, 72 h",0%
same,Motor Activity Reduction (%) Slight F,"[2]; 50 µM, 72 h",0%
same,Dead Worms (%) M,"[2]; 50 µM, 72 h",0%
same,Motor Activity Reduction (%) Significant M,"[2]; 50 µM, 72 h",0%
same,Motor Activity Reduction (%) Slight M,"[2]; 50 µM, 72 h",0%
same,Dead Worms (%) F,"[2]; 50 µM, 96 h",0%
same,Motor Activity Reduction (%) Significant F,"[2]; 50 µM, 96 h",0%
same,Motor Activity Reduction (%) Slight F,"[2]; 50 µM, 96 h",0%
same,Dead Worms (%) M,"[2]; 50 µM, 96 h",0%
same,Motor Activity Reduction (%) Significant M,"[2]; 50 µM, 96 h",0%
same,Motor Activity Reduction (%) Slight M,"[2]; 50 µM, 96 h",0%
same,activity against S. mansoni adult worms (in words),"[2]; analogues 50, 25, 10 and 5 μM, piplartine 5 and 10 μM, up to 96 h",did not present biological activity against the S. mansoni parasite
same,effect on J774A.1 cell viability (in words),[3],did not reduce cell viability at the same concentrations
